The record followed here is patent US4246280A, “20-Alkoxy-16-alkyl-prostadienoic acid derivatives” (priority 1974, dated 1981).

Data set [1] in a line: Diarrhea-producing effect, oral, guinea-pigs. The conditions noted are these: guinea pig, in vivo, 2hr to next morning, read-out: (A) Diarrhea-producing effect (b), ED50. The protocol: II. Diaarrhea-producing effect
Test compounds were administered orally to guinea-pigs. The appearance of diarrhea (loose or watery feces) at 2hr, 3hr, 4hr, 5hr and next morning was noted.

The nature of data set [2]: Antiasthmatic effect, oral (protection against histamine spray 30 min after oral administration in guinea-pigs). In kind it is in vivo. To be noted: for ED50: Cavia porcellus, 0.5 h, read-out: Antiasthmatic effect, Oral (a), ED50; for b/a: ratio of diarrhea ED50 (b) to oral antiasthmatic ED50 (a). The protocol:
Guinea-pigs were sprayed for 10 sec with histamine 30 min after oral administration of test compounds and observed for 3 min. The percent of aminals protected was determined.

Data set [3] can be described thus: Antiasthmatic effect, aerosol (protection against sneezing induced by histamine aerosol in guinea-pigs). To be noted: aerosol of test compound 15 sec, histamine 0.1% aerosol. In kind it is in vivo. On the procedure:
Guinea-pigs were placed in a chamber and sprayed for 10 sec with an aerosol of histamine solution (0.1%) and onset of sneezing was recorded and animals with control time of 70-100 sec were selected. These animals were sprayed for 15 sec with an aerosol of test compounds. After 45 sec, sprayed histamine and observed for 3 min it was. […] The percent of animals protected was determined.

The nature of data set [4]: Effect on air-way resistance (Konzett and Rossler; histamine-induced broncho-constriction, intraduodenal administration). In kind it is in vivo, guinea-pig. The conditions noted are these: Cavia porcellus, 0.5 h, read-out: (B) Effect on airway resistance, ED50. On the procedure: III. Effect on air-way resistance
The air-way resistance of the guinea-pig lung was determined by the method of Konzett and Rossler (Arch. exp. Path. Pharmak., 195, 71-74(1940)). The bronchorelaxing activity of prostaglandins were expressed in terms of protective effect against broncho-constriction elicited by intravenous injection of histamine (3 μg/kg). Histamine was injected 30 min after intraduodenal administration of test compound to urethane anesthetized and artificially ventilated guinea-pigs.

Setting [5] is: guinea-pigs, oral, histamine 30 min after administration.

Structures are written as SMILES.

With `CCCC[C@@H](C)C(O)/C=C/[C@H]1[C@H](O)CC(=O)[C@@H]1C/C=C\CCCC(=O)O` (stereo partly drawn) [11α,15-dihydroxy-16(R)-methyl-9-oxo-5(cis)-13(trans)prostadienoic acid], the TD50 in data set [1] is 0.025 mg/kg. The ED50 (commonly the dose at which the effect has come halfway, by size or by number of responders) in data set [2] (po) was determined as 0.0175 mg/kg. In data set [2], the b/a is reported as 1.43. Further, the “Antiasthmatic effect, Aerosol, ED50” value in data set [3] was 0.011 mg/L.

Consider `CCCCC(C)C(O)/C=C/[C@H]1[C@H](O)CC(=O)[C@@H]1C/C=C\CCCC(=O)O` (stereo partly drawn) [11α,15-dihydroxy-16-methyl-9-oxo-5(cis)-13(trans)prostadienoic acid], for which the TD50 in data set [1] is 0.1 mg/kg. The 50% effective dose (ED50) in data set [2] (po) came out at 0.025 mg/kg. In data set [2], the b/a was 4.0. Besides, the “Antiasthmatic effect, Aerosol, ED50” value in data set [3] worked out at 0.009 mg/L.

`COCCCCCC(O)/C=C/[C@H]1[C@H](O)CC(=O)[C@@H]1C/C=C\CCCC(=O)O` (stereo partly drawn) [20-methoxy-PGE2, 11α,15-dihydroxy-20-methoxy-9-oxo-5(cis)-13(trans)prostadienoic acid]: the 50% effective dose (ED50) in data set [2] (setting [5]) was over 0.8 mg/kg. The “antiasthmatic effect upon oral administration (in words)” value in data set [2] (guinea-pigs, oral) is “no antiasthmatic effect upon oral administration”. Moreover, the “Antiasthmatic effect, Aerosol, ED50” value in data set [3] turned out to be 0.15 mg/L.

On to `COCCCCC(C)C(O)/C=C/[C@H]1[C@H](O)CC(=O)[C@@H]1C/C=C\CCCC(=O)O` (stereo partly drawn) [Example 3, 11α,15-dihydroxy-20-methoxy-16-methyl-9-oxo-5(cis)-13(trans)prostadienoic acid], for which the values for the 50% effective dose (ED50) in data set [4] and in data set [2] (po) were 0.0135 mg/kg and 0.0098 mg/kg, respectively. Moreover, in data set [1], the TD50 was 0.12 mg/kg. In addition, in data set [2], the b/a came out at 12.2. Also, the “Antiasthmatic effect, Aerosol, ED50” value in data set [3] is 0.037 mg/L.

Consider `COCCCC[C@H](C)C(O)/C=C/[C@H]1[C@H](O)CC(=O)[C@@H]1C/C=C\CCCC(=O)O` (stereo partly drawn) [Example 6, 11α,15-dihydroxy-20-methoxy-16(S)-methyl-9-oxo-5(cis)-13(trans)prostadienoic acid], for which the TD50 in data set [1] came to 0.14 mg/kg. Besides, in data set [2] (po), the median effective dose (ED50) worked out at 0.71 mg/kg. For the same molecule, the b/a in data set [2] worked out at 20.0.

As to `COCCCC[C@H](C)C(O)/C=C/[C@H]1[C@H](O)CC(=O)[C@@H]1C/C=C\CCCC(=O)OC` (stereo partly drawn) [Example 7 ([α]D^25-58.0°), 11α,15-dihydroxy-20-methoxy-16(S)-methyl-9-oxo-5(cis)-13(trans)prostadienoic acid methyl ester], the TD50 in data set [1] came to 0.145 mg/kg. For the same molecule, in data set [2] (po), the 50% effective dose (ED50) was 0.016 mg/kg. Further, in data set [2], the b/a amounted to 9.06.

`COCCCCC(C)C(O)/C=C/[C@H]1[C@H](O)CC(=O)[C@@H]1C/C=C\CCCC(=O)OC` (stereo partly drawn) [Example 7 ([α]D^25-66.4°), 11α,15-dihydroxy-20-methoxy-16-methyl-9-oxo-5(cis)-13(trans)prostadienoic acid methyl ester]: the TD50 in data set [1] is 0.051 mg/kg. Further, in data set [2] (po), the ED50 stood at 0.0053 mg/kg. In addition, in data set [2], the b/a is 9.62.

`CCCCC[C@H](O)/C=C/[C@H]1[C@H](O)CC(=O)[C@@H]1C/C=C\CCCC(=O)O` [Prostaglandin E2]: the median effective dose (ED50) was over 0.8 mg/kg in data set [4] (guinea-pigs, intraduodenal, histamine 3 μg/kg i.v. 30 min later) and over 0.8 mg/kg in data set [2] (setting [5]). For the same molecule, the “antiasthmatic effect upon oral administration (in words)” value in data set [2] (guinea-pigs, oral) was “no antiasthmatic effect upon oral administration”. For the same molecule, the “Antiasthmatic effect, Aerosol, ED50” value in data set [3] was 0.15 mg/L.
